This is an account of results in ChEMBL document CHEMBL3774314, “Ammonium tetrathiomolybdate as a water-soluble and slow-release hydrogen sulfide donor” (Bioorg Med Chem Lett, 2016).

Active and inactive are the calls of the source. The calls are words filed in the database; no cut-off is given here.

Data set [1] in a line: Induction of Hydrogen sulfide production at pH 5 to 8 measured upto 15 hrs by UV-vis method based zinc-sulfide precipitation based methylene blue Method. It counts as physicochemical. To be noted: pH 5, 15 h.
Data set [2] relates to HaCaT. The data set is described as follows: Effect on mitochondrial membrane potential in human HaCaT cells after 1 hr by Rhodamine 123 staining based fluorescence assay. It counts as ADME, cell-based.
The subject of data set [3] is HaCaT. Kind of data set: Toxicity in human HaCaT cells assessed as H2O2-induced decrease in cell viability at 400 uM after 1 hr by CCK8 assay. It counts as cell-based. (In general: Formazan colour is commonly taken as a measure of viable cells.)
Data set [4] deals with HaCaT. The data set is described as follows: Cytoprotective in human HaCaT cells assessed as inhibition of H2O2-induced decrease in mitochondrial membrane potential at 200 uM preincubated for 1 hr followed by H2O2 addition by Rhodamine 123 staining based fluorescence assay. In kind it is functional, cell-based.
In data set [5] the test system is HaCaT. Kind of data set: Cytoprotective activity in human HaCaT cells assessed as inhibition of H2O2-induced decrease in LDH release at 200 uM. In kind it is functional, cell-based. (In general: LDH in the medium is a marker of cell lysis.)
Data set [6] relates to HaCaT. The data set is described as follows: Cytoprotective activity in human HaCaT cells assessed as inhibition of H2O2-induced decrease in cell viability at 50 to 200 uM after 1 hr by CCK8 assay. It counts as functional, cell-based.

Consider “TIOMOLIBDATE DIAMMONIUM [listing 1 of 2 here]”, for which the Activity result in data set [1] is “Active”; in the data set on HaCaT [2] it was “Non-toxic”; with HaCaT [3], “Toxic”.
Regarding “TIOMOLIBDATE DIAMMONIUM [listing 2 of 2 here]”, the outcome with HaCaT [4], in the data set on HaCaT [5] and with HaCaT [6] was Active.
